Values after ≈ are worked out from the molar mass of the structure shown.
Tests used:
Vibrio parahaemolyticus [1] = experiment: Antibacterial activity against Vibrio parahaemolyticus assessed as percent resistant isolates by broth microdilution method; type: functional
Shigella dysenteriae = experiment: Antibacterial activity against Shigella dysenteriae by broth microdilution method; type: functional
Escherichia coli [2] = experiment: Antibacterial activity against Escherichia coli assessed as growth inhibition at 2 ug/ml by broth microdilution method; type: functional
Shigella boydii [3] = experiment: Antibacterial activity against Shigella boydii by broth microdilution method; type: functional
Vibrio vulnificus = experiment: Antibacterial activity against Vibrio vulnificus assessed as percent resistant isolates by broth microdilution method; type: functional
Escherichia coli [4] = experiment: Antibacterial activity against enteroaggregative Escherichia coli by broth microdilution method; type: functional
Aeromonas veronii [5] = experiment: Antibacterial activity against Aeromonas veronii assessed as percent resistant isolates by broth microdilution method; type: functional
Salmonella typhi = experiment: Antibacterial activity against Salmonella enterica serovar Typhi assessed as percent susceptible isolates by broth microdilution method; type: functional, Salmonella enterica subsp. enterica serovar Typhi
Yersinia sp. [6] = experiment: Antibacterial activity against Yersinia sp. assessed as growth inhibition at 0.016 ug/ml by broth microdilution method; type: functional; details: Yersinia sp. (in: enterobacteria)
Aeromonas sp. [7] = experiment: Antibacterial activity against Aeromonas sp. assessed as growth inhibition at 0.12 ug/ml by broth microdilution method; type: functional
Campylobacter sp. [8] = experiment: Antibacterial activity against Campylobacter sp. assessed as growth inhibition at 0.004 ug/ml by broth microdilution method; type: functional
Escherichia coli [9] = experiment: Antibacterial activity against Escherichia coli assessed as growth inhibition at 0.008 ug/ml by broth microdilution method; type: functional
Escherichia coli [10] = experiment: Antibacterial activity against Escherichia coli assessed as growth inhibition at 0.5 ug/ml by broth microdilution method; type: functional
Vibrio sp. [11] = experiment: Antibacterial activity against Vibrio sp. assessed as growth inhibition at 0.008 ug/ml by broth microdilution method; type: functional
Aeromonas hydrophila [12] = experiment: Antibacterial activity against Aeromonas hydrophila by broth microdilution method; type: functional
Campylobacter sp. [13] = experiment: Antibacterial activity against Campylobacter sp. assessed as growth inhibition at 0.25 ug/ml by broth microdilution method; type: functional
Campylobacter jejuni = experiment: Antibacterial activity against Campylobacter jejuni by broth microdilution method; type: functional
Vibrio alginolyticus = experiment: Antibacterial activity against Vibrio alginolyticus assessed as percent resistant isolates by broth microdilution method; type: functional
Salmonella typhimurium [14] = experiment: Antibacterial activity against Salmonella enterica serovar Typhimurium by broth microdilution method; type: functional, Salmonella enterica subsp. enterica serovar Typhimurium
Aeromonas sp. [15] = experiment: Antibacterial activity against Aeromonas sp. assessed as growth inhibition at =>4 ug/ml by broth microdilution method; type: functional
Aeromonas veronii [16] = experiment: Antibacterial activity against Aeromonas veronii by broth microdilution method; type: functional
Shigella sp. [17] = experiment: Antibacterial activity against Shigella sp. assessed as growth inhibition at 0.03 ug/ml by broth microdilution method; type: functional
Escherichia coli [18] = experiment: Antibacterial activity against enteropathogenic Escherichia coli assessed as percent resistant isolates by broth microdilution method; type: functional
Escherichia coli [19] = experiment: Antibacterial activity against Escherichia coli assessed as growth inhibition at =<0.002 ug/ml by broth microdilution method; type: functional
[20] = Antibacterial activity against Salmonella enterica serovar Choleraesuis assessed as percent susceptible isolates by broth microdilution method; type: functional, Salmonella enterica subsp. enterica serovar Choleraesuis
Vibrio sp. [21] = experiment: Antibacterial activity against Vibrio sp. assessed as growth inhibition at 0.03 ug/ml by broth microdilution method; type: functional
Aeromonas sobria = experiment: Antibacterial activity against Aeromonas sobria assessed as percent susceptible isolates by broth microdilution method; type: functional
Aeromonas sp. [22] = experiment: Antibacterial activity against Aeromonas sp. assessed as growth inhibition at 0.5 ug/ml by broth microdilution method; type: functional
Escherichia coli [23] = experiment: Antibacterial activity against blood-borne Escherichia coli assessed as percent resistant isolates by broth microdilution method; type: functional
Aeromonas hydrophila [24] = experiment: Antibacterial activity against Aeromonas hydrophila assessed as percent susceptible isolates by broth microdilution method; type: functional
Salmonella enteritidis = experiment: Antibacterial activity against Salmonella enterica serovar Enteritidis assessed as percent susceptible isolates by broth microdilution method; type: functional, Salmonella enterica subsp. enterica serovar Enteritidis; details: pooled result: one value given for 5 cell lines, strains, targets or settings
Salmonella paratyphi [25] = experiment: Antibacterial activity against Salmonella enterica serovar Paratyphi assessed as percent susceptible isolates by broth microdilution method; type: functional, Salmonella enterica subsp. enterica serovar Paratyphi A
Shigella sp. [26] = experiment: Antibacterial activity against Shigella sp. assessed as growth inhibition at 0.12 ug/ml by broth microdilution method; type: functional
Campylobacter coli = experiment: Antibacterial activity against Campylobacter coli by broth microdilution method; type: functional
Yersinia sp. [27] = experiment: Antibacterial activity against Yersinia sp. assessed as growth inhibition at =<0.002 ug/ml by broth microdilution method; type: functional
Shigella sonnei = experiment: Antibacterial activity against Shigella sonnei by broth microdilution method; type: functional
Escherichia coli [28] = experiment: Antibacterial activity against enteropathogenic Escherichia coli assessed as percent susceptible isolates by broth microdilution method; type: functional
Escherichia coli [29] = experiment: Antibacterial activity against Escherichia coli assessed as growth inhibition at 0.12 ug/ml by broth microdilution method; type: functional
Salmonella typhimurium [30] = experiment: Antibacterial activity against Salmonella enterica serovar Typhimurium assessed as percent resistant isolates by broth microdilution method; type: functional, Salmonella enterica subsp. enterica serovar Typhimurium; details: pooled result: one value given for 8 cell lines, strains, targets or settings
Salmonella sp. = experiment: Antibacterial activity against Salmonella sp. assessed as growth inhibition at 0.06 ug/ml by broth microdilution method; type: functional
Shigella boydii [31] = experiment: Antibacterial activity against Shigella boydii assessed as percent susceptible isolates by broth microdilution method; type: functional; details: pooled result: one value given for 3 cell lines, strains, targets or settings
Escherichia coli [32] = experiment: Antibacterial activity against Escherichia coli assessed as growth inhibition at 0.016 ug/ml by broth microdilution method; type: functional
Plesiomonas shigelloides = experiment: Antibacterial activity against Plesiomonas shigelloides assessed as growth inhibition at 0.008 ug/ml by broth microdilution method; type: functional
Yersinia sp. [33] = experiment: Antibacterial activity against Yersinia sp. assessed as growth inhibition at 0.12 ug/ml by broth microdilution method; type: functional; details: Yersinia sp. (in: enterobacteria)
Salmonella paratyphi [34] = experiment: Antibacterial activity against Salmonella enterica serovar Paratyphi by broth microdilution method; type: functional, Salmonella enterica subsp. enterica serovar Paratyphi A
Vibrio fluvialis = experiment: Antibacterial activity against Vibrio fluvialis assessed as percent resistant isolates by broth microdilution method; type: functional
Aeromonas sp. [35] = experiment: Antibacterial activity against Aeromonas sp. assessed as growth inhibition at 2 ug/ml by broth microdilution method; type: functional
Campylobacter sp. [36] = experiment: Antibacterial activity against Campylobacter sp. assessed as growth inhibition at =>4 ug/ml by broth microdilution method; type: functional
Vibrio parahaemolyticus [37] = experiment: Antibacterial activity against Vibrio parahaemolyticus assessed as percent susceptible isolates by broth microdilution method; type: functional
Aeromonas sp. [38] = experiment: Antibacterial activity against Aeromonas sp. assessed as growth inhibition at 0.008 ug/ml by broth microdilution method; type: functional
Vibrio sp. [39] = experiment: Antibacterial activity against Vibrio sp. assessed as percent susceptible isolates by broth microdilution method; type: functional

CC1Sc2c(C(=O)O)c(=O)c3cc(F)c(N4CCNCC4)cc3n21 (stereo not given) [ULIFLOXACIN]
Activity (Vibrio parahaemolyticus [1]): 0%
MIC50 (Shigella dysenteriae): 4 ng/mL (≈ 0.0114 µM)
MIC90 (Shigella dysenteriae): 8 ng/mL (≈ 0.0229 µM)
inhibition at 2 µg/mL (Escherichia coli [2]): 97%
MIC50 (Shigella boydii [3]): 4 ng/mL (≈ 0.0114 µM)
MIC90 (Shigella boydii [3]): 8 ng/mL (≈ 0.0229 µM)
Activity (Vibrio vulnificus): 0%
MIC (Escherichia coli [4]): 4 ng/mL (≈ 0.0114 µM)
MIC50 (Escherichia coli [4]): 4 ng/mL (≈ 0.0114 µM)
MIC90 (Escherichia coli [4]): 8 ng/mL (≈ 0.0229 µM)
MIC (Escherichia coli [4]; Escherichia coli, read-out: MIC): 4 ng/mL (≈ 0.0114 µM)
MIC50 (Escherichia coli [4]; Escherichia coli, read-out: MIC50): 4 ng/mL (≈ 0.0114 µM)
MIC90 (Escherichia coli [4]; Escherichia coli, read-out: MIC90): 8 ng/mL (≈ 0.0229 µM)
Activity (Aeromonas veronii [5]): 2%
Activity (Salmonella typhi): 100%
inhibition at 0.016 µg/mL (Yersinia sp. [6]): 93%
inhibition at 0.12 µg/mL (Aeromonas sp. [7]): 93%
inhibition at 0.004 µg/mL (Campylobacter sp. [8]): 0%
inhibition at 0.008 µg/mL (Escherichia coli [9]): 93%
inhibition at 0.5 µg/mL (Escherichia coli [10]): 97%
inhibition at 0.008 µg/mL (Vibrio sp. [11]): 40%
MIC50 (Aeromonas hydrophila [12]): 4 ng/mL (≈ 0.0114 µM)
MIC90 (Aeromonas hydrophila [12]): 60 ng/mL (≈ 0.172 µM)
inhibition at 0.25 µg/mL (Campylobacter sp. [13]): 83%
MIC50 (Campylobacter jejuni): 30 ng/mL (≈ 0.0859 µM)
MIC90 (Campylobacter jejuni): > 2000 ng/mL
Activity (Vibrio alginolyticus): 0%
MIC50 (Salmonella typhimurium [14]): 8 ng/mL (≈ 0.0229 µM)
MIC90 (Salmonella typhimurium [14]): 30 ng/mL (≈ 0.0859 µM)
inhibition (INH) (Aeromonas sp. [15]): 100%
MIC50 (Aeromonas veronii [16]): 4 ng/mL (≈ 0.0114 µM)
MIC90 (Aeromonas veronii [16]): 60 ng/mL (≈ 0.172 µM)
inhibition at 0.03 µg/mL (Shigella sp. [17]): 99%
Activity (Escherichia coli [18]): 0%
inhibition (INH) (Escherichia coli [19]): 0%
Activity [20]: 100%
inhibition at 0.03 µg/mL (Vibrio sp. [21]): 100%
Activity (Aeromonas sobria): 98%
inhibition at 0.5 µg/mL (Aeromonas sp. [22]): 98%
Activity (Escherichia coli [23]): 10%
Activity (Aeromonas hydrophila [24]): 98%
Activity (Salmonella enteritidis): 100%
Activity (Salmonella paratyphi [25]): 100%
inhibition at 0.12 µg/mL (Shigella sp. [26]): 100%
MIC50 (Campylobacter coli): 30 ng/mL (≈ 0.0859 µM)
MIC90 (Campylobacter coli): > 2000 ng/mL
inhibition (INH) (Yersinia sp. [27]): 0%
MIC50 (Shigella sonnei): 4 ng/mL (≈ 0.0114 µM)
MIC90 (Shigella sonnei): 8 ng/mL (≈ 0.0229 µM)
Activity (Escherichia coli [28]): 100%
inhibition at 0.12 µg/mL (Escherichia coli [29]): 97%
Activity (Salmonella typhimurium [30]): 0%
inhibition at 0.06 µg/mL (Salmonella sp.): 97%
Activity (Shigella boydii [31]): 100%
inhibition at 0.016 µg/mL (Escherichia coli [32]): 94%
inhibition at 0.008 µg/mL (Plesiomonas shigelloides): 100%
inhibition at 0.12 µg/mL (Yersinia sp. [33]): 100%
MIC50 (Salmonella paratyphi [34]): 8 ng/mL (≈ 0.0229 µM)
MIC90 (Salmonella paratyphi [34]): 30 ng/mL (≈ 0.0859 µM)
Activity (Vibrio fluvialis): 0%
inhibition at 2 µg/mL (Aeromonas sp. [35]): 98%
inhibition (INH) (Campylobacter sp. [36]): 100%
Activity (Vibrio parahaemolyticus [37]): 100%
inhibition at 0.008 µg/mL (Aeromonas sp. [38]): 68%
Activity (Vibrio sp. [39]): 100%
